Experiments:
[1] = test system: adrenaline secretion; experiment: animal experiments using mice: secretomotory action on adrenaline, seen as blood glucose elevation; type: in vivo
Excerpt: No studies have been conducted on the efficacy of curcumin, zingerone, or shogaol on the stimulation of adrenaline secretion.

[2] = test system: patients with muscle disorders that occurred with aging; experiment: tablets given to aged patients with muscle disorders (walking difficulties, proctoptosia, backaches, limb pains); type: in vivo, human; details: single regular dose of drugs admixed with one of the substances, without curcumin
Excerpt: In Western medicine, it has been understood that proctoptosia and leg, lumbus and arm aches are attributable only to hematogenous disorders and resultant inflammation at local sites. […] Thus, it can be understood that these disorders are attributed to insufficient communication of brain commands to local sites and therefore the hematogenous disorders and onset of inflammation are problems caused by abnormal motions of muscles due to incomplete communication of brain commands.

SMILES	blood glucose levels (secretomotory action on adrenaline) [1]	amelioration of proctoptosia and leg, lumbus and arm aches [2]
COc1cc(/C=C/C(=O)/C=C(O)/C=C/c2ccc(O)c(OC)c2)ccc1O [curcumin]	remarkably elevated	–
C[C@H](CC[C@@H](O)C(CO)CO)C1CCC2C3C(C[C@H](O)[C@@]21C)[C@@]1(C)CC[C@@H](O)CC1C[C@H]3O (some centres unmarked) [scymnol, Scymnol]	–	not significantly ameliorated
COc1cc(CCC(C)=O)ccc1O [zingerone]	remarkably elevated	–
CCCCC/C=C/C(=O)CCc1ccc(O)c(OC)c1 [shogaol, (6)-shogaol]	remarkably elevated	–
C[C@H](CCC(=O)O)[C@H]1CC[C@H]2[C@@H]3[C@H](O)C[C@@H]4C[C@H](O)CC[C@]4(C)[C@H]3C[C@H](O)[C@]12C [cholic acid]	–	not significantly ameliorated

Source: US20050058733A1, “Health food products” (Daicho Kikaku Incorporated Company, priority 2001, published 2005)
